Results taken from patent publication US9708311B2, “Benzimidazole derivatives as EP4 antagonists” (BAYER PHARMA AKTIENGESELLSCHAFT, priority 2012, dated 2017).

target: human EP4 receptor (Homo sapiens (Human), UniProt P35408); test: Test for antagonism of the human EP4 receptor signal (cAMP HTRF); type: cell-based; conditions: antagonism test Example 3.2.1; read-out: IC50 value at the EP4 receptor (antagonism test)
Summary of the method: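 Antagonism of PGE2-stimulated cAMP formation in hEP4-R cells with IBMX present. After lysis, cAMP measured by competitive TR-FRET (Eu cryptate anti-cAMP antibody vs cAMP-d2), 20 min at room temperature. Read-out is the 665/620 nm emission ratio; antagonism appears as restored FRET signal.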

Sequence of human EP4 receptor (P35408 whole entry): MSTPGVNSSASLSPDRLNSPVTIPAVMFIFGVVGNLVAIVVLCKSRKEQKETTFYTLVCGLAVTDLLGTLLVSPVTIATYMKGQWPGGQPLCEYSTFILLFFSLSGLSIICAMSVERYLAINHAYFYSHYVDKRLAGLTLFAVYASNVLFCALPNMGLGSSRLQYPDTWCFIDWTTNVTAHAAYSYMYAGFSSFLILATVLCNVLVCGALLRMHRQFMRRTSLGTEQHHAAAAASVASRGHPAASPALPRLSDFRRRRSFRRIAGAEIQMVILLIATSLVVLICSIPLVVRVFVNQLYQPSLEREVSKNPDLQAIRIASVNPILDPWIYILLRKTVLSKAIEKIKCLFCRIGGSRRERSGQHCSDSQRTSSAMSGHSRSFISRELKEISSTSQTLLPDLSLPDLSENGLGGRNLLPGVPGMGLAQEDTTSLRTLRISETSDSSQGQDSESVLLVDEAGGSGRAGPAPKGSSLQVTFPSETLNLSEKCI

Structure (SMILES)	IC50
CCn1c2ccccc2c2cc(-c3nc4cc(C(=O)O)ccc4n3CCOC)ccc21 [Example 4, 2-(9-Ethyl-9H-carbazol-3-yl)-1-(2-methoxyethyl)-1H-benzimidazole-5-carboxylic acid]	~6 nM

same assay, conditions: cells expressing hEP4, PGE2 at EC80 (0.4 nM), cAMP TR-FRET; read-out: Antagonism hEP4 IC50

Structure (SMILES)	IC50
CCn1c2ccccc2c2cc(-c3nc4cc(C(=O)O)ccc4n3CCOC)ccc21 [Example 4, 2-(9-Ethyl-9H-carbazol-3-yl)-1-(2-methoxyethyl)-1H-benzimidazole-5-carboxylic acid]	5.59 nM
CCn1c2ccccc2c2cc(-c3nc4cc(C(=O)O)ccc4n3CC3CC3(C)C)ccc21 (stereo not drawn) [Example 121, 1-[(2,2-Dimethylcyclopropyl)methyl]-2-(9-ethyl-9H-carbazol-3-yl)-1H-benzimidazole-5-carboxylic acid]	100 nM
CCOC(=O)c1ccc2c(c1)nc(-c1ccc3c(c1)c1ccccc1n3CC)n2CC1COC1 [Example 122, Ethyl 2-(9-ethyl-9H-carbazol-3-yl)-1-(oxetan-3-ylmethyl)-1H-benzimidazole-5-carboxylate]	464 nM
CCn1c2ccccc2c2cc(-c3nc4cc(C(=O)O)ccc4n3CC3COC3)ccc21 [Example 123, 2-(9-Ethyl-9H-carbazol-3-yl)-1-(oxetan-3-ylmethyl)-1H-benzimidazole-5-carboxylic acid]	51.5 nM
COCCn1c(-c2ccc3c(c2)c2ccccc2n3CC2CCC2)nc2cc(C(=O)O)ccc21 [Example 124, 2-[9-(Cyclobutylmethyl)-9H-carbazol-3-yl]-1-(2-methoxyethyl)-1H-benzimidazole-5-carboxylic acid]	94.3 nM
O=C(O)c1ccc2c(c1)nc(-c1ccc3c(c1)c1ccccc1n3CC1CCC1)n2CC1CC1 [Example 125, 2-[9-(Cyclobutylmethyl)-9H-carbazol-3-yl]-1-(cyclopropylmethyl)-1H-benzimidazole-5-carboxylic acid]	257 nM
CCn1c2ccccc2c2cc(-c3nc4cc(-c5n[nH]c(=O)o5)ccc4n3CCN(C)C)ccc21 [Example 126, 5-{1-[2-(Dimethylamino)ethyl]-2-(9-ethyl-9H-carbazol-3-yl)-1H-benzimidazol-5-yl}-1,3,4-oxadiazol-2(3H)-one]	118 nM
CCn1c2ccccc2c2cc(-c3nc4cc(S(N)(=O)=O)ccc4n3CCOC)ccc21 [Example 127, 2-(9-Ethyl-9H-carbazol-3-yl)-1-(2-methoxyethyl)-1H-benzimidazole-5-sulphonamide]	305 nM
CCn1c2ccccc2c2cc(-c3nc4cc(-n5ccnn5)ccc4n3C)ccc21 [Example 128, 9-Ethyl-3-[1-methyl-5-(1H-1,2,3-triazol-1-yl)-1H-benzimidazole-2-yl]-9H-carbazole]	111 nM
CCn1c2ccccc2c2cc(-c3nc4cc(S(=O)(=O)NC)ccc4n3C)ccc21 [Example 129, 2-(9-Ethyl-9H-carbazol-3-yl)-N,1-dimethyl-1H-benzimidazole-5-sulphonamide]	944 nM
CCn1c2ccccc2c2cc(-c3nc4cc(C(=O)O)ccc4n3CCOC(F)(F)F)ccc21 [Example 130, 2-(9-Ethyl-9H-carbazol-3-yl)-1-[2-(trifluoromethoxy)ethyl]-1H-benzimidazole-5-carboxylic acid]	14.3 nM
CCn1c2ccccc2c2cc(-c3nc4cc(C(=O)O)ccc4n3CC3CC3)nc(C)c21 [Example 131, 1-(Cyclopropylmethyl)-2-(9-ethyl-1-methyl-9H-beta-carbolin-3-yl)-1H-benzimidazole-5-carboxylic acid]	480 nM
CCn1c2ccccc2c2cc(-c3nc4cc(C(=O)O)ccc4n3CC3CCO3)ccc21 (stereo not drawn) [Example 132, 2-(9-Ethyl-9H-carbazol-3-yl)-1-(oxetan-2-ylmethyl)-1H-benzimidazole-5-carboxylic acid]	24.5 nM
CCn1c2ccccc2c2cc(-c3nc4cc(C(=O)O)ccc4n3CC3CCCO3)ccc21 (stereo not drawn) [Example 133, 2-(9-Ethyl-9H-carbazol-3-yl)-1-(tetrahydrofuran-2-ylmethyl)-1H-benzimidazole-5-carboxylic acid]	7 nM
CCn1c2ccccc2c2cc(-c3nc4cc(C(=O)O)ccc4n3C[C@@H](O)COC)ccc21 [Example 134, 2-(9-Ethyl-9H-carbazol-3-yl)-1-[(2R)-2-hydroxy-3-methoxypropyl]-1H-benzimidazole-5-carboxylic acid]	136 nM
CCn1c2ccccc2c2cc(-c3nc4cc(C(=O)O)ccc4n3C[C@H](O)COC)ccc21 [Example 135, 2-(9-Ethyl-9H-carbazol-3-yl)-1-[(2S)-2-hydroxy-3-methoxypropyl]-1H-benzimidazole-5-carboxylic acid]	340 nM
CCn1c2ccccc2c2cc(-c3nc4cc(C(=O)O)ccc4n3CCS(C)(=O)=O)ccc21 [Example 136, 2-(9-Ethyl-9H-carbazol-3-yl)-1-[2-(methylsulphonyl)ethyl]-1H-benzimidazole-5-carboxylic acid]	325 nM
CCn1c2ccccc2c2cc(-c3nc4cc(C(=O)O)ccc4n3CC(O)C3CC3)ccc21 (stereo not drawn) [Example 137, 1-(2-Cyclopropyl-2-hydroxyethyl)-2-(9-ethyl-9H-carbazol-3-yl)-1H-benzimidazole-5-carboxylic acid]	18.6 nM
CCn1c2ccccc2c2cc(-c3nc4cc(C(=O)O)ccc4n3C[C@H](O)CO)ccc21 [Example 138, 1-[(2S)-2,3-Dihydroxypropyl]-2-(9-ethyl-9H-carbazol-3-yl)-1H-benzimidazole-5-carboxylic acid]	567 nM
CCn1c2ccccc2c2cc(-c3nc4cc(C(=O)O)ccc4n3C[C@@H]3COCCO3)ccc21 [Example 139, 1-[(2R)-1,4-Dioxan-2-ylmethyl]-2-(9-ethyl-9H-carbazol-3-yl)-1H-benzimidazole-5-carboxylic acid]	252 nM
CCn1c2ccc(C)cc2c2cc(-c3nc4c(C)c(C(=O)O)ccc4n3CCOC)ccc21 [Example 141, 2-(9-Ethyl-6-methyl-9H-carbazol-3-yl)-1-(2-methoxyethyl)-4-methyl-1H-benzimidazole-5-carboxylic acid]	15.3 nM
CCn1c2ccc(Cl)cc2c2cc(-c3nc4c(C)c(C(=O)O)ccc4n3CCOC)ccc21 [Example 142, 2-(6-Chloro-9-ethyl-9H-carbazol-3-yl)-1-(2-methoxyethyl)-4-methyl-1H-benzimidazole-5-carboxylic acid]	4.16 nM
CCn1c2ccc(-c3nc4c(C)c(C(=O)O)ccc4n3CCOC)cc2c2cccc(Cl)c21 [Example 143, 2-(8-Chloro-9-ethyl-9H-carbazol-3-yl)-1-(2-methoxyethyl)-4-methyl-1H-benzimidazole-5-carboxylic acid]	5.19 nM

test system: endometrial lesions; test: Syngeneic mouse endometriosis model (preventive); type: in vivo; conditions: p.o., 28 days, vs control, p<0.01
Experimental: The syngeneic induction of endometriosis in mice is a common animal model for testing the efficacy of substances for the treatment of endometriosis. Endometriosis is induced experimentally by transplantation of murine uterus fragments of a donor mouse of the same strain into the abdominal cavity of the recipient mouse. Female mice of the balb/c strain were used. The cycle of the mouse is determined by means of a vaginal smear. Donor animals which are in oestrus are used exclusively. The donor animals are sacrificed and the uterine horns are removed and subsequently cut open longitudinally. From the uteri, using a punch 2 mm bioptates are punched out, which are subsequently sewn into the recipient animal. The recipient animals are anaesthetised and subjected to a laparotomy. During the intervention, 6 uterus punchings of a donor mouse are sewn onto the parietal peritoneum of the recipient mouse. […] After 28 days, the animals are opened up in a final laparotomy and the lesion sizes are determined. The grown lesions are photographically recorded and the area is measured by means of AxioVision Software. […] In the s.c. approach (FIG. 1), the substance according to the invention (Example 4) was tested in 4 different dose schemes and the lesion size was assessed in comparison to the animals treated with vehicle. […]

Structure (SMILES)	reduction of the endometrial lesions, oral administration
CCn1c2ccccc2c2cc(-c3nc4cc(C(=O)O)ccc4n3CCOC)ccc21 [Example 4, 2-(9-Ethyl-9H-carbazol-3-yl)-1-(2-methoxyethyl)-1H-benzimidazole-5-carboxylic acid]	significant reduction of the endometrial lesions

same assay, conditions: s.c., 0.4, 3, 10 and 50 mg/kg/day, 28 days, vs vehicle

Structure (SMILES)	reduction of the endometrial lesions, subcutaneous administration
CCn1c2ccccc2c2cc(-c3nc4cc(C(=O)O)ccc4n3CCOC)ccc21 [Example 4, 2-(9-Ethyl-9H-carbazol-3-yl)-1-(2-methoxyethyl)-1H-benzimidazole-5-carboxylic acid]	significant reduction of the endometrial lesions

test system: macrophages in the peritoneal fluid; test: Flow cytometry of peritoneal lavage cells (macrophage activation); type: in vivo; conditions: mouse endometriosis model, p.o., vs vehicle control, p<0.001
Experimental: For the obtainment of the cells from the peritoneum, 3 ml of cold PBS (phosphate buffered saline) were injected into the peritoneum of the dead animal and removed again after gentle massage of the abdomen. The cells from this peritoneal lavage were spun down at 1400 rpm for 2 min and taken up again in 500 μl of PBS containing 2% FCS (fetal calf serum). 100 μl of this cell suspension were used for each stain with different antibody-fluorochrome conjugate mixes. The cells were spun down for this purpose in 96 hole plates again and resuspended in 50 μl of an antibody solution in the 1:300 diluted anti CD11b-Pacific Blue (eBioscience), 1:200 diluted anti F4/80-PE (eBioscience), 1:200 diluted anti Gr1-APC-Cy7 (BD Pharmigen), 1:400 diluted anti CD11c-PE-Cy7 (BD Pharmigen) and 1:400 diluted anti MHCII-FITC (BD Pharmigen) and stored on ice in the dark for 20 min. Subsequently, 150 μl of PBS containing 2% FCS were added and the cells were once again centrifuged down at 1400 rpm for 2 min. The 200 μl of supernatant were discarded and the cells were washed with 200 μl of PBS containing 2% FCS and once again centrifuged off.
Subsequently, they were taken up in 200 μl of PBS containing 2% FCS and 1:5000 diluted 5 mg/ml DAPI (Sigma) and the fluorescence intensity of the individual fluorochromes per cell was measured with a FACS Canto II flow cytometer. […]

Structure (SMILES)	number of activated macrophages in the peritoneal fluid (FACS)
CCn1c2ccccc2c2cc(-c3nc4cc(C(=O)O)ccc4n3CCOC)ccc21 [Example 4, 2-(9-Ethyl-9H-carbazol-3-yl)-1-(2-methoxyethyl)-1H-benzimidazole-5-carboxylic acid]	highly significant reduced number of activated macrophages
